The target of assay [1] is T1, hCRHR2 (Homo sapiens, UniProt Q13324).
T1 sequence (Q13324 1-411): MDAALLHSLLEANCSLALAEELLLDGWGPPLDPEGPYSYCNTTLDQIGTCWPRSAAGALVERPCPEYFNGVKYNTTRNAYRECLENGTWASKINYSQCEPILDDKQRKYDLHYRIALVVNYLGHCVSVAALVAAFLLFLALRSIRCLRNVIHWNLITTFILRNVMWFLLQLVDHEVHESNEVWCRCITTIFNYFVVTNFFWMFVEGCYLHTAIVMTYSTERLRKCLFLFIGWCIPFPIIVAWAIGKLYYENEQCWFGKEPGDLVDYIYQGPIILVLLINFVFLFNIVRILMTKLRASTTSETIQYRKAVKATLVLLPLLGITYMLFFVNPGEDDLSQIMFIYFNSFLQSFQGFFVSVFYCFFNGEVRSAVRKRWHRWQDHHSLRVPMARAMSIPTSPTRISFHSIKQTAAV
Description: HTRF cAMP assay, determination of hCRHR2 potency (peptide libraries 5 conc., purified peptides 11 conc.). The class given is cell-based. The procedure, abridged:
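Read-out was HTRF competitive cAMP detection (d2-labelled cAMP, cryptate-labelled antibody) in suspended, freshly thawed CHO-K1 cells stably carrying human CRHR2.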
On the technique in general: Time-resolved FRET reads energy transfer from a long-lived donor to a nearby acceptor.

Assay [2] deals with T2, hCRHR1 (Homo sapiens, UniProt P34998).
T2 sequence (P34998 24-415): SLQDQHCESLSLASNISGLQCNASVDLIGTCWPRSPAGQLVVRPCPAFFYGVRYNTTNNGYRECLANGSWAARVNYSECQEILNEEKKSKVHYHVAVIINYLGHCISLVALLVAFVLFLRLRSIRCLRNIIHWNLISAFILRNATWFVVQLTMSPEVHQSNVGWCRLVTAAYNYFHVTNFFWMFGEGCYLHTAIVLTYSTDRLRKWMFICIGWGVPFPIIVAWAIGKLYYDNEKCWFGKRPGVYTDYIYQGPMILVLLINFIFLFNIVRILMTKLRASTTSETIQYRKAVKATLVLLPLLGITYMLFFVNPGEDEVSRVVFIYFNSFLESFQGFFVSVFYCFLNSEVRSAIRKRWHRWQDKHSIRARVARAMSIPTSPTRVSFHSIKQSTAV
Briefly: HTRF cAMP assay, determination of hCRHR1 potency (peptide libraries 5 conc., purified peptides 11 conc.). The class given is cell-based. The procedure, abridged: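 Cellular cAMP was read by time-resolved FRET between d2-labelled cAMP and cryptate anti-cAMP antibody. The cells were freshly thawed suspension CHO-K1 cells stably expressing human CRHR1.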

The mark [3] stands for this setting: Table 3, matched molecular pairs X^38 L vs Nle, peptide library of Example 4, read-out: hCRHR2 pEC50 (converted).
The mark [4] stands for this setting: Table 3, matched molecular pairs X^38 L vs Nle, peptide library of Example 4, read-out: hCRHR1 pEC50 (converted).
The mark [5] stands for this setting: library peptides, matched molecular pairs L vs Nle in position X^38, read-out: Potency hCRHR2 pEC50 (converted).
Setting [6] is: library peptides, matched molecular pairs L vs Nle in position X^38, read-out: Potency hCRHR1 pEC50 (converted).

Where two headings read alike, the source gives them in different places. Starred links: 1 amine or outer side, 2 acyl side, 3 side chain; linkers in the order of their positions; H or OH if unused. Non-standard residues stand in square brackets, D forms with d. Residues, ends and D or L forms follow the SMILES beside them. Groups on a side chain read outwards from the residue. *: point of attachment. C20 diacid = O=C(O)CCCCCCCCCCCCCCCCCCC(=O)*; γGlu = O=C(O)[C@H](CCC(=O)[*:2])N[*:1]; NMeI = CC[C@H](C)[C@H](NC)C(=O)O; Nle = CCCC[C@H](N)C(=O)O; AEEA = NCCOCCOCC(=O)O; Aib = CC(C)(N)C(=O)O

As for `CCCC[C@H](NC(=O)[C@@H](NC(=O)[C@H](CCC(=O)O)NC(=O)[C@H](C)NC(=O)[C@H](CC(N)=O)NC(=O)C(C)(C)NC(=O)[C@H](CCCCNC(=O)COCCOCCNC(=O)COCCOCCNC(=O)CC[C@H](NC(=O)CC[C@H](NC(=O)CCCCCCCCCCCCCCCCCCC(=O)O)C(=O)O)C(=O)O)NC(=O)[C@H](C)NC(=O)[C@H](CCC(N)=O)NC(=O)[C@H](CCC(=O)O)NC(=O)[C@H](CCCNC(=N)N)NC(=O)[C@H](C)NC(=O)[C@H](C)NC(=O)[C@H](CCCNC(=N)N)NC(=O)[C@H](C)NC(=O)[C@H](CCCNC(=N)N)NC(=O)[C@H](C)NC(=O)[C@H](CCC(N)=O)NC(=O)[C@@H](NC(=O)[C@H](CC(C)C)NC(=O)[C@H](CC(C)C)NC(=O)[C@@H](NC(=O)[C@H](CCC(N)=O)NC(=O)[C@H](CC(C)C)NC(=O)[C@H](CC(C)C)NC(=O)CNC(=O)[C@@H](NC(=O)[C@@H]1CCCN1C(=O)[C@@H](NC(=O)[C@H](CC(=O)O)NC(=O)[C@H](CC(C)C)NC(=O)[C@H](CO)NC(=O)[C@H](CC(C)C)NC(=O)[C@@H](NC(=O)[C@@H](NC)[C@@H](C)CC)C(C)C)C(C)C)[C@@H](C)CC)[C@@H](C)CC)[C@@H](C)O)[C@@H](C)CC)C(=O)N[C@@H](C)C(=O)N[C@@H](CCC(=O)O)C(=O)N[C@H](C(N)=O)C(C)C` [compound 134] (H-[NMeI]VLSLDVPIGLLQILLTQARARAAREQAK([AEEA-AEEA-γGlu-γGlu-C20 diacid])[Aib]NAEI[Nle]AEV-NH2), the EC50 in assay [1] (Table 4, library peptides having X^38 = Nle, read-out: hCRHR2 pEC50 (converted)) is 0.00794 nM; in assay [2] (Table 4, library peptides having X^38 = Nle, read-out: hCRHR1 pEC50 (converted)), 794 nM.
With `CCCC[C@H](NC(=O)[C@@H](NC(=O)[C@H](CCC(=O)O)NC(=O)[C@H](C)NC(=O)[C@H](CC(N)=O)NC(=O)[C@@H](NC(=O)[C@H](CCCCNC(=O)COCCOCCNC(=O)COCCOCCNC(=O)CC[C@H](NC(=O)CC[C@H](NC(=O)CCCCCCCCCCCCCCCCCCC(=O)O)C(=O)O)C(=O)O)NC(=O)[C@H](C)NC(=O)[C@H](CCC(N)=O)NC(=O)[C@H](CCC(=O)O)NC(=O)[C@H](CCCNC(=N)N)NC(=O)[C@H](C)NC(=O)[C@H](C)NC(=O)[C@H](CCC(=O)O)NC(=O)[C@H](C)NC(=O)[C@H](CCCNC(=N)N)NC(=O)[C@H](C)NC(=O)[C@H](CCC(N)=O)NC(=O)[C@H](CCC(=O)O)NC(=O)[C@H](CC(C)C)NC(=O)[C@H](CC(C)C)NC(=O)[C@@H](NC(=O)[C@H](CCC(N)=O)NC(=O)[C@H](CC(C)C)NC(=O)[C@H](CC(C)C)NC(=O)CNC(=O)[C@@H](NC(=O)[C@@H]1CCCN1C(=O)[C@@H](NC(=O)[C@H](CC(=O)O)NC(=O)[C@H](CC(C)C)NC(=O)[C@H](CO)NC(=O)[C@H](CC(C)C)NC(=O)[C@@H](NC(=O)[C@@H](N)[C@@H](C)CC)C(C)C)C(C)C)[C@@H](C)CC)[C@@H](C)CC)[C@@H](C)O)[C@@H](C)CC)C(=O)N[C@@H](C)C(=O)N[C@@H](CCC(=O)O)C(=O)N[C@H](C(N)=O)[C@@H](C)CC` [SEQ ID NO: 24] (H-IVLSLDVPIGLLQILLEQARAEAAREQAK([AEEA-AEEA-γGlu-γGlu-C20 diacid])TNAEI[Nle]AEI-NH2), the EC50 was 0.398 nM in assay [1] (setting [3]) and 1000 nM in assay [2] (setting [4]).
The corresponding values for `CCCC[C@H](NC(=O)[C@@H](NC(=O)[C@H](CCC(=O)O)NC(=O)[C@H](C)NC(=O)[C@H](CC(N)=O)NC(=O)[C@@H](NC(=O)[C@H](CCCCNC(=O)COCCOCCNC(=O)COCCOCCNC(=O)CC[C@H](NC(=O)CC[C@H](NC(=O)CCCCCCCCCCCCCCCCCCC(=O)O)C(=O)O)C(=O)O)NC(=O)[C@H](C)NC(=O)[C@H](CCC(N)=O)NC(=O)[C@H](CCC(=O)O)NC(=O)[C@H](CCCNC(=N)N)NC(=O)[C@H](CCC(N)=O)NC(=O)[C@H](C)NC(=O)[C@H](CCC(N)=O)NC(=O)[C@H](C)NC(=O)[C@H](CCCNC(=N)N)NC(=O)[C@H](C)NC(=O)[C@H](CCC(N)=O)NC(=O)[C@H](CCC(=O)O)NC(=O)[C@H](CC(C)C)NC(=O)[C@H](CC(C)C)NC(=O)[C@@H](NC(=O)[C@H](CCC(N)=O)NC(=O)[C@H](CC(C)C)NC(=O)[C@H](CC(C)C)NC(=O)CNC(=O)[C@@H](NC(=O)[C@@H]1CCCN1C(=O)[C@@H](NC(=O)[C@H](CC(=O)O)NC(=O)[C@H](CC(C)C)NC(=O)[C@H](CO)NC(=O)[C@H](CC(C)C)NC(=O)[C@@H](NC(=O)[C@@H](N)[C@@H](C)CC)C(C)C)C(C)C)[C@@H](C)CC)[C@@H](C)CC)[C@@H](C)O)[C@@H](C)CC)C(=O)N[C@@H](C)C(=O)N[C@@H](CCC(=O)O)C(=O)N[C@H](C(N)=O)C(C)C` [SEQ ID NO: 32] (H-IVLSLDVPIGLLQILLEQARAQAQREQAK([AEEA-AEEA-γGlu-γGlu-C20 diacid])TNAEI[Nle]AEV-NH2) are 0.316 nM and 25.1 nM.
Take `CCCC[C@H](NC(=O)[C@@H](NC(=O)[C@H](CCC(=O)O)NC(=O)[C@H](C)NC(=O)[C@H](CC(N)=O)NC(=O)[C@@H](NC(=O)[C@H](CCCCNC(=O)COCCOCCNC(=O)COCCOCCNC(=O)CC[C@H](NC(=O)CC[C@H](NC(=O)CCCCCCCCCCCCCCCCCCC(=O)O)C(=O)O)C(=O)O)NC(=O)[C@H](C)NC(=O)[C@H](CCC(N)=O)NC(=O)[C@H](CCC(=O)O)NC(=O)[C@H](CCCNC(=N)N)NC(=O)[C@H](CCC(N)=O)NC(=O)[C@H](C)NC(=O)[C@H](CCCNC(=N)N)NC(=O)[C@H](C)NC(=O)[C@H](CCCNC(=N)N)NC(=O)[C@H](C)NC(=O)[C@H](CCC(N)=O)NC(=O)[C@H](CCC(=O)O)NC(=O)[C@H](CC(C)C)NC(=O)[C@H](CC(C)C)NC(=O)[C@@H](NC(=O)[C@H](CCC(N)=O)NC(=O)[C@H](CC(C)C)NC(=O)[C@H](CC(C)C)NC(=O)CNC(=O)[C@@H](NC(=O)[C@@H]1CCCN1C(=O)[C@@H](NC(=O)[C@H](CC(=O)O)NC(=O)[C@H](CC(C)C)NC(=O)[C@H](CO)NC(=O)[C@H](CC(C)C)NC(=O)[C@@H](NC(=O)[C@@H](N)[C@@H](C)CC)C(C)C)C(C)C)[C@@H](C)CC)[C@@H](C)CC)[C@@H](C)O)[C@@H](C)CC)C(=O)N[C@@H](C)C(=O)N[C@@H](CCC(=O)O)C(=O)N[C@H](C(N)=O)[C@@H](C)CC` [compound 65] (H-IVLSLDVPIGLLQILLEQARARAQREQAK([AEEA-AEEA-γGlu-γGlu-C20 diacid])TNAEI[Nle]AEI-NH2): the EC50 in assay [1] (setting [5]) was 0.1 nM; in assay [2] (setting [6]), 158 nM.
Taken in the same sequence, the figures for `CCCC[C@H](NC(=O)[C@@H](NC(=O)[C@H](CCC(=O)O)NC(=O)[C@H](C)NC(=O)[C@H](CC(N)=O)NC(=O)[C@@H](NC(=O)[C@H](CCCCNC(=O)COCCOCCNC(=O)COCCOCCNC(=O)CC[C@H](NC(=O)CC[C@H](NC(=O)CCCCCCCCCCCCCCCCCCC(=O)O)C(=O)O)C(=O)O)NC(=O)[C@H](C)NC(=O)[C@H](CCC(=O)O)NC(=O)[C@H](CCC(=O)O)NC(=O)[C@H](CCCNC(=N)N)NC(=O)[C@H](CCC(N)=O)NC(=O)[C@H](CO)NC(=O)[C@H](CCCNC(=N)N)NC(=O)[C@H](C)NC(=O)[C@H](CCCNC(=N)N)NC(=O)[C@H](C)NC(=O)[C@H](CCC(N)=O)NC(=O)[C@H](CCC(=O)O)NC(=O)[C@H](CC(C)C)NC(=O)[C@H](CC(C)C)NC(=O)[C@@H](NC(=O)[C@H](CCC(N)=O)NC(=O)[C@H](CC(C)C)NC(=O)[C@H](CC(C)C)NC(=O)CNC(=O)[C@@H](NC(=O)[C@@H]1CCCN1C(=O)[C@@H](NC(=O)[C@H](CC(=O)O)NC(=O)[C@H](CC(C)C)NC(=O)[C@H](CO)NC(=O)[C@H](CC(C)C)NC(=O)[C@@H](NC(=O)[C@@H](N)[C@@H](C)CC)C(C)C)C(C)C)[C@@H](C)CC)[C@@H](C)CC)[C@@H](C)O)[C@@H](C)CC)C(=O)N[C@@H](C)C(=O)N[C@@H](CCC(=O)O)C(=O)N[C@H](C(N)=O)C(C)C` [compound 71] (H-IVLSLDVPIGLLQILLEQARARSQREEAK([AEEA-AEEA-γGlu-γGlu-C20 diacid])TNAEI[Nle]AEV-NH2) were 0.631 nM and 100000 nM.

(Values after patent EP4810052A2, “HCRHR2 SELECTIVE POLYPEPTIDES” (Gubra A/S, priority 2023, dated 2026).)
